Laboratory results published in patent US20060292158A1, “Method for the treatment of cancer using a novel pharmaceutical composition containing at least one dolastatin 10 derivative” (priority 2004, published 2006).
Where two headings read alike, the source gives them in different places.

Legend:
[1] = system: NCI-H460 human large cell lung carcinoma xenograft; test: Antitumor activity in NCI-H460 subcutaneous xenograft in athymic nude mice, combination with cisplatin (Example 4); format: in vivo; details: day 12
Procedure: The NCI-H460 human large cell lung carcinoma cell line was purchased from American Type Culture Collection (MD, U.S.A.). The cells were cultured in RPMI-1640 medium (cat. # R8758, lot 12K2310, exp 01/03; lot 82K2497, exp 08/03; Sigma-Aldrich corporation, MO, U.S.A.) supplemented with 10% (v/v) fetal bovine serum (cat. # 047115, lot # 31300124; Roche Diagnostics KK, Tokyo, Japan).
Sixty of 5-week-old male athymic nude mice (BALB/c nu/nu) were purchased from Charles River Japan, Inc. (Yokohama, Japan). All mice were kept for 8 days in the animal facility of Kamakura Research Laboratories of Chugai Pharmaceutical Co., Ltd. before subjection to the experiment.
(§1) The title compound was synthesized at Kamakura Research Laboratories of Chugai Pharmaceutical Co., Ltd. CDDP (Randa™, lot # 924150) was obtained from Nippon Kayaku Co., Ltd. (Tokyo, Japan). The title compound was dissolved in dimethyl sulfoxide (DMSO) and diluted into 2.5 % DMSO solution with saline (for Injection; Ohtsuka Pharmaceutical Industry Co., Ltd., Tokushima, Japan) at the date of administration. CDDP was diluted with saline at the date of administration.
The in vivo evaluation procedure for anticancer drugs was based on the methods described by Plowman, et al. (1997) for xenograft models. See, “Anticancer Drug Development Guide: Preclinical Screening, Clinical Trials, and Approval, Teicher B (ed) pp. 101-125, specifically Chap. 6, “Human Tumor Xenograft Models in NCI Drug Development”, hereby incorporated by reference. A single cell suspension of NCI-H460 (5.6×10^6 cells per mouse) was inoculated subcutaneously into the right flank of each mouse. The tumor volume was estimated by using the equation ab^2/2, where a and b represent tumor length and width, respectively. Mice bearing tumors of between 150 and 245 mm^3 were selected on day 7 after tumor inoculation and were randomly divided into 8 groups, consisting of 5 mice each. Mean tumor volume and body weight of the selected mice were 187 mm3 and 24.3 g, respectively. Drug administration was initiated after mice were divided into groups. The title compound (2 mg/kg or 3 mg/kg), CDDP (5 mg/kg or 6.7 mg/kg) and each vehicle were administered intravenously. Tumor volume and body weight of each mouse were measured twice a week. […] Tumor growth inhibition was calculated using the equation (1-ΔT/ΔC)×100, where ΔT represents the difference in tumor volume from the initial treatment date of the treated group and ΔC represents the difference in tumor volume from the initial treatment date of the vehicle group.

[2] = system: Calu-6 human lung cancer xenograft; format: in vivo; details: day 32 after inoculation
Procedure: The Calu-6 human lung carcinoma cell line was purchased from American Type Culture Collection (MD, U.S.A.). The cells were cultured in Eagle's MEM (Sigma-Aldrich corporation, MO, U.S.A.) supplemented with 0.1 milli mol/L Non-essential amino acids (Invitrogen corporation, CA, U.S.A.), 1 milli mol/L sodium pyruvate (Invitrogen corporation, CA, U.S.A.), and 10% (v/v) fetal bovine serum (Roche Diagnostics KK, Tokyo, Japan).
60 of 5-week-old male athymic nude mice (BALB/c nu/nu) were purchased from Charles River Japan, Inc. (Yokohama, Japan). All mice were kept for 8 days in the animal facility of Kamakura Research Laboratories of Chugai Pharmaceutical Co., Ltd. before subjection to the experiment.
as §1, with “Irinotecan (Topotecin™, lot. No. EQAZF13)” for “CDDP (Randa™, lot # 924150)”, “Daiichi Pharmaceutical” for “Nippon Kayaku”, “(For” for “(for”, “Irinotecan” for “CDDP”
The in vivo evaluation procedure for anticancer drugs was based on the methods described by Plowman, et al. (1997) for xenograft models. See, “Anticancer Drug Development Guide: Preclinical Screening, Clinical Trials, and Approval, Teicher B (ed) pp. 101-125, specifically Chap. 6, “Human Tumor Xenograft Models in NCI Drug Development”, hereby incorporated by reference. A single cell suspension of Calu-6 (5.7×10^6 cells per mouse) was inoculated subcutaneously into the right flank of each mouse. The tumor volume was estimated by using the equation ab^2/2, where a and b represent tumor length and width, respectively. Mice bearing tumors of between 181 and 326 mm^3 were selected on day 11 after tumor inoculation and were randomly divided into 10 groups, consisting of 5 mice each. […] Drug administration was initiated after mice were randomized and divided into groups. The tide compound (0.375 mg/kg; 0.75 mg/kg; 1.5 mg/kg or 3 mg/kg), irinotecan (80 mg/kg) and each vehicles were administered intravenously. Tumor volume and body weight of each mouse were measured twice a week. […] Tumor growth inhibition was calculated by using the equation (1-ΔT/ΔC)×100, where ΔT represents the tumor volume difference from the initial treatment date of treated group and ΔC represents the tumor volume difference from the initial treatment date of vehicle group.

CC[C@H](C)[C@@H]([C@@H](CC(=O)N1CCC[C@H]1[C@H](SC)[C@@H](C)C(=O)N(C)CCc1cccc(O)c1)OC)N(C)C(=O)[C@@H](NC(=O)[C@H](C(C)C)N(C)C)C(C)C [compound of formula (I-A), N-[1-({1-sec-Butyl-4-[2-(2-{[2-(3-hydroxy-phenyl)-ethyl]-methyl-carbamoyl}-1-methylsulfanyl-propyl)-pyrrolidin-1-yl]-2-methoxy-4-oxo-butyl}-methyl-carbamoyl)-2-methyl-propyl]-2-dimethylamino-3-methyl-butyramide]
reduction of tumor growth ([1]; 2 mg/kg (1/3 MTD) i.v. weekly x3): 45%
reduction of tumor growth ([1]; 3 mg/kg (1/2 MTD) i.v. weekly x3): 93%
tumor growth inhibition ([2]; 0.375 mg/kg i.v. weekly x3): 11%
tumor growth inhibition ([2]; 0.75 mg/kg i.v. weekly x3): 21%
tumor growth inhibition ([2]; 1.5 mg/kg i.v. weekly x3): 41%
tumor growth inhibition ([2]; 3 mg/kg i.v. weekly x3): 117%
